# System: cocoa callus
# Assay: Induction of cocoa callus development with 2,4-D and chitosan
# Type: cell-based, Theobroma cacao
# From the text: After surface sterilization, seeds (grains) were subjected to induction of calluses in specific media for tissue cultures as follows (see Murashige, T. and Skoog, F. “A revised medium for rapid growth and bioassays with tobacco tissue cultures,” Physiologia Plantarum, 1962, Vol 15: 473-495). Disinfected cocoa seeds were submitted to extraction of embryonic cells under aseptic conditions, and transferred to growth medium (MS), which contains mineral salts and microelements, and which is enriched with myo-inositol (100 mg/L) and sucrose (30 g/L), with gellan gum (2.4 g/L) as a gelling agent. The cocoa explants were incubated under dark conditions for 7 days at 22-24° C. After the incubation period, the cocoa embryonic cells were subcultured in nutrient media with the same types of ingredients as the media mentioned above, but containing different concentrations of auxins (growth hormones 2,4-D), using […] (0, 0.1, 0.5, 1.0 and 2.0 mg/L). […]
# Different concentrations including 0, 0.1, 0.2, 0.5, 1, 2, 4, mg/L of kinetin were evaluated. Also, kinetin was used with or without 2,4-D at concentration of 2 mg/L. The growth of calluses was evaluated after 100 days, and different parameters were used to determine the effects of the growth regulators on callus growth including % of disaggregation and height and diameter of the callus. […]
smiles,measurement,setting,value
"O=C(O)COc1ccc(Cl)cc1Cl [2,4 D, 2,4-dichlorophenoxyacetic acid]",growth in cocoa calluses,"2 mg/L, all three cocoa phenotypes, early stages of development",induced larger growth
same,% of Callus Development,"2,4-D 2 mgL^−1, initial callus development, three cocoa phenotypes",22.9167%
